Reference: patent US20210363486A1, “CARDIOMYOCYTE PROLIFERATION PROMOTING AGENT AND USE THEREOF” (KYOTO UNIVERSITY, priority 2018, published 2021)

Tests used:
[1] = system: iPS cell-derived cardiomyocytes; test: Screening for cardiomyocyte proliferation agent based on cell cycle activation (Fucci green fluorescence and cell number); set-up: species or system human; settings: compounds administered on day 22 after differentiation induction, evaluated on day 25; 384-well plate, 2500 cells per well
Source text: The Fucci gene (Cell. 2008 Feb. 8; 132 (3): 487-98.) was constitutively expressed under the CAG promoter using the PiggyBac transposon vector system (System Biosciences) in a healthy human-derived iPS cell line.
The Fucci gene-introduced iPS cell line was induced to differentiate into cardiomyocytes by the embryoid body method described in Funakoshi, S. et al. Sci Rep 8, 19111 […], cardiomyocytes were extracted using a cell sorter on day 20 after induction, and then seeded into a 384-well plate at 2500 cells per well.
On day 22 after differentiation induction, about 4000 types of compounds were administered, and on day 25, the reactivity of the proliferative capacity of iPS cell-derived cardiomyocytes to the drugs was evaluated based on the intensity of Fucci's green fluorescence and the number of cells.
The Fucci reporter emits orange fluorescence in the G1/G0 phase and green fluorescence in the S/G2/M phase of the cell cycle. Since the cell cycle of undifferentiated human iPS cells is activated, most cells emit green fluorescence. However, when these iPS cells are differentiated into cardiomyocytes, the cell cycle usually stops and most cells turn red.

[2] = system: human iPS cell-derived cardiomyocytes; test: EdU assay cell proliferation analysis; format: cell-based; settings: 1 μM for 48 hours from day 18; compared to control group (DMSO-treated group); FIG. 3
Experimental: Further, human iPS cell-derived cardiomyocytes on day 18 after differentiation induction were treated with AM80 (1 μM) for 48 hours, and cell proliferation analysis was performed using EdU assay. […] For the EdU assay, Click-it EdU Pacific Blue flow cytometry assay kit, catalog number C10418 (Invitrogen) was used.

[3] = system: cardiomyocytes on day 18 of differentiation induction; test: Flow cytometry of Fucci green fluorescent cardiomyocytes after AM80 administration; format: cell-based, human; settings: 1 μM, flow cytometry 48 hours later; vs Control (DMSO); FIG. 1 and FIG. 2
Experimental: 1 μM AM80 was administered to cardiomyocytes on day 18 of differentiation induction and then analysis was conducted by flow cytometry 48 hours later.

[4] = system: myocardial infarction model immunodeficient mouse (NRG mouse); test: Engraftment efficiency of transplanted cardiomyocytes by in vivo optical imaging (IVIS); settings: cardiomyocytes treated with 1 μM for 48 hours from day 18, intramyocardial injection; compared to DMSO treatment group; FIG. 4
Experimental: Cardiomyocytes were induced to differentiate from iPS cells (Funakoshi, S. et al. Sci Rep 8, 19111 (2016)) derived from a healthy individual, which constantly express luciferase, by the method described in this document. The cardiomyocytes were treated with AM80 (1 μM) for 48 hours from day 18 after differentiation induction. Cardiomyocytes were extracted by flow cytometry, and then transplanted (1000,000 cells) into a myocardial infarction model immunodeficient mouse (NRG mouse with the left anterior descending coronary artery ligated) by intramyocardial injection.

O=C1NC(=O)C(=Cc2ccc(-c3ccc(F)cc3)o2)S1 (stereo in doubt) [CAY10505]
proliferation and cell division of iPS cell-derived cardiomyocytes (Fucci's green fluorescence intensity and number of cells) [1]: promote the proliferation and cell division

Cc1ccccc1C(C(=O)NC1CCCCC1)N(C(=O)Cn1ccnc1C)c1cccc(F)c1 (centres unmarked) [AGI5198, N-[2-(cyclohexylamino)-1-(2-methylphenyl)-2-oxoethyl]-N-(3-fluorophenyl)-2-methyl-1H-imidazole-1-acetamide]
proliferation and cell division of iPS cell-derived cardiomyocytes (Fucci's green fluorescence intensity and number of cells) [1]: promote the proliferation and cell division

CC1(C)CCC(C)(C)c2cc(NC(=O)c3ccc(C(=O)O)cc3)ccc21 [AM80]
cell proliferation activity (EdU assay) [2]: significant increase
green fluorescent cells (activation of cell cycle) [3]: significant increase
proliferation and cell division of iPS cell-derived cardiomyocytes (Fucci's green fluorescence intensity and number of cells) [1]: promote the proliferation and cell division
engraftment efficiency of transplanted cardiomyocytes [4]: significant improvement

CC1(C)CCC(C)(C)c2cc(C(=O)Nc3ccc(C(=O)O)cc3)ccc21 [AM580]
proliferation and cell division of iPS cell-derived cardiomyocytes (Fucci's green fluorescence intensity and number of cells) [1]: promote the proliferation and cell division

CC1=C(/C=C/C(C)=C/C=C/C(C)=C/C(=O)O)C(C)(C)CCC1 [All trans retinoic acid]
proliferation and cell division of iPS cell-derived cardiomyocytes (Fucci's green fluorescence intensity and number of cells) [1]: promote the proliferation and cell division

O=C(O)c1ccc2cc(-c3ccc(O)c(C45CC6CC(CC(C6)C4)C5)c3)ccc2c1 [CD437]
proliferation and cell division of iPS cell-derived cardiomyocytes (Fucci's green fluorescence intensity and number of cells) [1]: promote the proliferation and cell division

CC(C)(C)c1cc(C(=O)/C=C/c2ccc(C(=O)O)cc2)cc(C(C)(C)C)c1 [CH55]
proliferation and cell division of iPS cell-derived cardiomyocytes (Fucci's green fluorescence intensity and number of cells) [1]: promote the proliferation and cell division

CC(C)(C)NS(=O)(=O)c1cncc(-c2cc(F)c3nc(N)nn3c2)c1 [CZC24832]
proliferation and cell division of iPS cell-derived cardiomyocytes (Fucci's green fluorescence intensity and number of cells) [1]: promote the proliferation and cell division
